Measured values reported in patent US20120202822A1, “COMBINATION” (priority 2009, published 2012).

Experiments:
Test in all cases: Cell Growth Inhibition Assay (Cell Titer Glo, 3 days)
Assay type in all cases: cell-based
[1] = test system: 12R8-1; conditions: Homo sapiens, 72 h, 12R8-1 (Compound A resistant clone), read-out: IC50, Single Agent (mean ± std)
Description: (§1) Melanoma A375 PF11 line was derived from A375 (ATCC). 12R5-1, 12R5-3, 12R8-1, 12R8-3, 16R5-2, 16R6-3 and 16R6-4 are single cell clones derived from mixed populations of A375 PF11 cells that were selected to grow in Compound A to concentrations of 1200 and 1600 nM. All lines were cultured in RPMI 1640 medium containing 10% fetal bovine serum (FBS).
(§2) All cells were cultured for a minimum of 72 hours prior to cell plating. Cells were assayed in a 96-well tissue culture plate (NUNC 136102) of RPMI medium containing 10% FBS for all cells at 1,000 cells per well. Approximately 24 hours after plating, cells were exposed to ten, three-fold serial dilutions of compound or the combination of the two agents at a constant molar to molar ratio of 1:10 Compound A to Compound B in RPMI media containing 10% FBS. Cells were incubated in the presence of compounds for 3 days. ATP levels were determined by adding Cell Titer Glo® (Promega) according to the manufacturer's protocol. Briefly, Cell Titer Glo® was added each plate, incubated for 30 minutes then luminescent signal was read on the SpectraMax L plate reader with a 0.5 sec integration time.
(§3) Inhibition of cell growth was estimated after treatment with compound or combination of compounds for three days and comparing the signal to cells treated with vehicle (DMSO). Cell growth was calculated relative to vehicle (DMSO) treated control wells. Concentration of compound that inhibits 50% of control cell growth (IC50) was interpolated when y=50% of the vehicle control using nonlinear regression with the equation, y=(A+(B−A)/(1+(C/x)̂D))), where A is the minimum response (ymin), B is the maximum response (ymax), C is the inflection point of the curve (EC50) and D is the Hill coefficient.
(§4) Combination effects on potency were evaluated using Combination Index (CI) which was calculated with the back-interpolated IC50 values and the mutually non-exclusive equation derived by Chou and Talalay (Chou T C, Talalay P. Quantitative analysis of dose-effect relationships: the combined effects of multiple drugs or enzyme inhibitors. Adv Enzyme Regul 1984; 22:27-55.) A detailed description of the CI is found above. In general, a CI value <0.9, between 0.9 and 1.1, or >1.1 indicates synergy, additivity and antagonism, respectively. In general, the smaller the CI number, the greater is the strength of synergy.
(§5) The combination effects on the response scale were quantified by Excess Over Highest Single Agent (EOHSA) based on the concept of nonlinear blending as described in detail by Peterson and Novick (2007) and Peterson (2010) [Peterson J J, Novick S J. J Recept Signal Transduct Res 2007; 27(2-3):125-46, Peterson J. Frontiers of Bioscience S2, 483-503. 2010] EOHSA values are defined as increases in improvement (here, in ‘percentage points’ (ppts) difference) produced by the combination over the best single agent at its component dose level for the combination. Details on the calculation of EOHSA can be found above. For single agent and combination treatments, cells were exposed to compounds at a fixed-dose-ratio, and dose response curves were fit to the experimental data and analyzed using regression models. At specified total dose levels of IC50 along the dose response curve, the dose combination (corresponding to IC50) was determined for making EOHSA statistical inferences. More specifically, for a combination drug experiment involving drug 1 at dose d1 and drug 2 at dose d2, (i.e., total dose equals d1+d2) is said to have a positive EOHSA if the mean response at the combination is better than the mean response to drug 1 at dose d1 […] drug 2 at dose d2.

[2] = test system: 16R6-3; conditions: Homo sapiens, 72 h, 16R6-3 (Compound A resistant clone), read-out: IC50, Single Agent (mean ± std)
Description: as §1, §2, §3, §4, §5

[3] = test system: 12R5-1; conditions: Homo sapiens, 72 h, 12R5-1 (Compound A resistant clone), read-out: IC50, Single Agent (mean ± std)
Description: as §1, §2, §3, §4, §5

[4] = test system: 12R8-3; conditions: Homo sapiens, 72 h, 12R8-3 (Compound A resistant clone), read-out: IC50, Single Agent (mean ± std)
Description: as §1, §2, §3, §4, §5

[5] = test system: 16R6-4; conditions: Homo sapiens, 72 h, 16R6-4 (Compound A resistant clone), read-out: IC50, Single Agent (mean ± std)
Description: as §1, §2, §3, §4, §5

[6] = test system: 12R5-3; conditions: Homo sapiens, 72 h, 12R5-3 (Compound A resistant clone), read-out: IC50, Single Agent (mean ± std)
Description: as §1, §2, §3, §4, §5

[7] = test system: 16R5-2; conditions: Homo sapiens, 72 h, 16R5-2 (Compound A resistant clone), read-out: IC50, Single Agent (mean ± std)
Description: as §1, §2, §3, §4, §5

[8] = test system: A375PF11; conditions: Homo sapiens, A375P-F11, 72 h, A375PF11 (BRAF_V600E), read-out: IC50, Single Agent (mean ± std)
Description: as §1, §2, §3, §4, §5

Compound	IC50 [1]	IC50 [2]	IC50 [3]	IC50 [4]	IC50 [5]	IC50 [6]	IC50 [7]	IC50 [8]
CC(C)(C)c1nc(-c2cccc(NS(=O)(=O)c3c(F)cccc3F)c2F)c(-c2ccnc(N)n2)s1 [Compound A, N-{3-[5-(2-amino-4-pyrimidinyl)-2-(1,1-dimethylethyl)-1,3-thiazol-4-yl]-2-fluorophenyl}-2,6-difluorobenzenesulfonamide]	> 10000 nM	> 10000 nM	> 10000 nM	> 10000 nM	> 10000 nM	> 10000 nM	> 10000 nM	59 nM
COc1ncc(-c2ccc3nccc(-c4ccnnc4)c3c2)cc1NS(=O)(=O)c1ccc(F)cc1F [Compound B, 2,4-difluoro-N-{2-(methyloxy)-5-[4-(4-pyridazinyl)-6-quinolinyl]-3-pyridinyl}benzenesulfonamide]	103 ± 16 nM	80 ± 17 nM	212 ± 38 nM	129 ± 24 nM	61 ± 10 nM	88 ± 2 nM	41 ± 18 nM	48 nM
